Measurements: ChEMBL document CHEMBL1125858, “Synthesis and biological activity of MK 287 (L-680,573): a potent, specific and orally active paf receptor antagonist” (Bioorg Med Chem Lett, 1991)
Active and inactive are the calls of the source. No cut-off for these calls is given here.

How the values were obtained:
[1] = target: T1, Alpha-1A adrenergic receptor (Bos taurus) (UniProt P18130); experiment: Compound was tested for it's binding affinity towards calf brain alpha 1 receptor at a concentration of 10 uM; NA means no affinity.
T1 sequence (whole entry): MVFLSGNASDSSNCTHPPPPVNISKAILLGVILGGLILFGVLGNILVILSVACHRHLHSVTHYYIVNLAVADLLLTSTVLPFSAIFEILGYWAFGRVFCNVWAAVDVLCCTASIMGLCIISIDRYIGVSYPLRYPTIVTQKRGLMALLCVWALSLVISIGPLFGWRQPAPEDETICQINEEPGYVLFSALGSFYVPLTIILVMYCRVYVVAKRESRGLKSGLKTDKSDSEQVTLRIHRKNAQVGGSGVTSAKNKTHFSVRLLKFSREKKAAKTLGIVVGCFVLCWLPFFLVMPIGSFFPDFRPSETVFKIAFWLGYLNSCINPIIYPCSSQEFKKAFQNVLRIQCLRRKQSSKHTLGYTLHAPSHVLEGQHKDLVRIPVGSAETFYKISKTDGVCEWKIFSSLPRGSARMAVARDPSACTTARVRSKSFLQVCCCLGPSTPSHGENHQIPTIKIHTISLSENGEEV

[2] = species on record: Homo sapiens; experiment: Compound was tested for human platelet aggregation induced by ADP at concentrations from 1 to 10 uM; NE means no effect; format: functional, organism-based
[3] = species on record: Homo sapiens; experiment: Compound was tested for PAF-induced human platelet aggregation in washed platelets.; format: functional, organism-based
[4] = test system: Cavia porcellus; experiment: Compound was tested for it's ability to inhibit PAF-induced bronchoconstriction in male guinea pigs after intravenous dosing; format: functional
[5] = test system: Rattus norvegicus; experiment: In vivo efficacy for increased plasma N-acetyl-beta-D-glucosaminidase (NAGA) activity in male and female rats in a dose-dependent manner; format: functional
[6] = species on record: Homo sapiens; experiment: Compound was tested for PAF-induced human platelet aggregation in plasma-rich platelets.; format: functional, organism-based
[7] = test system: Rattus norvegicus; experiment: In vivo efficacy for inhibition of PAF-induced (10 nM/kg) extravasation in male and female rats in a dose-dependent manner; format: functional
[8] = target: T2, Alpha-2A adrenergic receptor (Bos taurus) (UniProt Q28838); experiment: Compound was tested for it's binding affinity towards calf brain alpha 2 receptor at a concentration of 10 uM; NA means no affinity.
T2 sequence (whole entry): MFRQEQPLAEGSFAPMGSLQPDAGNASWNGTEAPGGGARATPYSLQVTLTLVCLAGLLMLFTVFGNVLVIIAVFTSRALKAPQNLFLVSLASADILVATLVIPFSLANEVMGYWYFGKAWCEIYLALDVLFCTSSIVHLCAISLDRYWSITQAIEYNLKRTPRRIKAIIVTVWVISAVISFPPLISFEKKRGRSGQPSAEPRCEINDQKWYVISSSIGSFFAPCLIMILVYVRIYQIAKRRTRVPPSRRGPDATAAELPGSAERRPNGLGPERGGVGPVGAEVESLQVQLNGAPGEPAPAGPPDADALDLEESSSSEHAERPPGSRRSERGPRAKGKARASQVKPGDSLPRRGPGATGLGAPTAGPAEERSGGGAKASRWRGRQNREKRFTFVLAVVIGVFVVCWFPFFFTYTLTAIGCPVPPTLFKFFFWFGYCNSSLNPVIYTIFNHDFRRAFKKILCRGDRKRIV

[9] = target: Beta-2 adrenergic receptor (Cavia porcellus) (UniProt Q8K4Z4); experiment: Compound was tested for it's binding affinity towards guinea pig lung Beta-2 adrenergic receptor at a concentration of 10 uM; NA means no affinity.
[10] = test system: Cavia porcellus; experiment: Compound was tested for it's ability to inhibit PAF-induced bronchoconstriction in female guinea pigs after intravenous dosing; format: functional
[11] = species on record: Homo sapiens; experiment: Compound was tested for human platelet aggregation induced by vasopressin at concentrations from 1 to 10 uM; NE means no effect; format: functional, organism-based
[12] = species on record: Homo sapiens; experiment: The compound was tested for PAF-induced degranulation in preincubated isolated human neutrophils; format: functional
[13] = target: Leukotriene B4 receptor 1 (Homo sapiens) (UniProt Q15722); settings: 1 to 10 uM
[14] = target: C5a anaphylatoxin chemotactic receptor 1 (Homo sapiens) (UniProt P21730); settings: 1 to 10 uM
[15] = target: Beta-1 adrenergic receptor (Cavia porcellus) (UniProt B0FL73); experiment: Compound was tested for it's binding affinity towards guinea pig heart Beta-1 adrenergic receptor at a concentration of 10 uM; NA means no affinity.
[16] = species on record: Homo sapiens; experiment: Compound was tested for human platelet aggregation induced by thromboxane A2 agonist U-44,069 at concentrations from 1 to 10 uM; NE means no effect; format: functional, organism-based
[17] = Half-life in rhesus monkeys by intravenous administration of dose; format: ADME, organism-based; settings: cercopithecidae, in vivo

Sequence of Beta-1 adrenergic receptor (Cavia porcellus) (B0FL73 1-467): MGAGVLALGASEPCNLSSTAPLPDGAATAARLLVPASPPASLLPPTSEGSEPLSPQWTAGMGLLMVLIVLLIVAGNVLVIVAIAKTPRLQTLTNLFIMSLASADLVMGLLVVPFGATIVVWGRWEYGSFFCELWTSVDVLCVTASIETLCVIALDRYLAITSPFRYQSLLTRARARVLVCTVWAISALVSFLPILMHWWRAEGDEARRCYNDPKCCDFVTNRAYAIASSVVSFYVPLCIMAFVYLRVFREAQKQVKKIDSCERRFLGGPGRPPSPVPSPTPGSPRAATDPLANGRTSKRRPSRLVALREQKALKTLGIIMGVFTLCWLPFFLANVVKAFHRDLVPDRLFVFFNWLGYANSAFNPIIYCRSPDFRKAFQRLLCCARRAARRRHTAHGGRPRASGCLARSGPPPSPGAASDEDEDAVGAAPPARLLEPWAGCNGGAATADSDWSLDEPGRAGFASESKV
Sequence of Beta-2 adrenergic receptor (Cavia porcellus) (Q8K4Z4 whole entry, looked up): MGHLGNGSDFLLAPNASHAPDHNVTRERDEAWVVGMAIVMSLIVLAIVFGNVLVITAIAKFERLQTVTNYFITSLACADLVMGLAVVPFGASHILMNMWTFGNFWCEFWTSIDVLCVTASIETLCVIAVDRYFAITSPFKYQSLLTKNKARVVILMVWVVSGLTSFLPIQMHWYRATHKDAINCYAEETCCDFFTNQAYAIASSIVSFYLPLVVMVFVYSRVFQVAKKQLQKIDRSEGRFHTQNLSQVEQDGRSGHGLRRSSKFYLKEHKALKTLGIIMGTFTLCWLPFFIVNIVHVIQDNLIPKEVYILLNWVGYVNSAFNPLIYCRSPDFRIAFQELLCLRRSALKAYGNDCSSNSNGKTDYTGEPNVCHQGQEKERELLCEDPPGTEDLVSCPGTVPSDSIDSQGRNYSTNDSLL
Sequence of C5a anaphylatoxin chemotactic receptor 1 (Homo sapiens) (P21730 whole entry, looked up): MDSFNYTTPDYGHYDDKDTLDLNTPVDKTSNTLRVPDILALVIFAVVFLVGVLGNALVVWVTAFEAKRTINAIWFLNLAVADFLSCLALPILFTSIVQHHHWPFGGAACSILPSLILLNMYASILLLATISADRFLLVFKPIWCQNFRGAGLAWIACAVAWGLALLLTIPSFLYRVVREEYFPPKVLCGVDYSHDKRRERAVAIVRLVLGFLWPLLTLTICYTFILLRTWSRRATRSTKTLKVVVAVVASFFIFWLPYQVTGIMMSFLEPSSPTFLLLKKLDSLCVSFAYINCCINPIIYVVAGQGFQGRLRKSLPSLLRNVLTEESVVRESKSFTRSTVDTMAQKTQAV
Sequence of Leukotriene B4 receptor 1 (Homo sapiens) (Q15722 whole entry, looked up): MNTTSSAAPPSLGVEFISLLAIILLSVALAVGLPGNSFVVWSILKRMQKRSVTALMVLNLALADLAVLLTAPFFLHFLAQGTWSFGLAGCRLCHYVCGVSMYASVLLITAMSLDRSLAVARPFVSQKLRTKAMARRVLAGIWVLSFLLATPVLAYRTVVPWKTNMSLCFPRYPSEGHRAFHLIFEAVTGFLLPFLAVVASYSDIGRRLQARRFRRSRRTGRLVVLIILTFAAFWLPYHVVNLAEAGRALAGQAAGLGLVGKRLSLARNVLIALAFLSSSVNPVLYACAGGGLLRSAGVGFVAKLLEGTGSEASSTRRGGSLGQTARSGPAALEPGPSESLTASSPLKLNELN

| Affinity [1] | IC50 [3] [nM] | IC50 [6] [nM] | Affinity [8] | Affinity [9] | IC50 [12] [nM] | inhibition [13] | Affinity [15] | half-life [17] [min] | Compound | Activity [2] | ED50 [4] [mg/kg] | ED50 [5] [mg/kg] | ED50 [7] [mg/kg] | ED50 [10] [mg/kg] | Activity [11] | inhibition [14] | Activity [16] |
| --- | --- | --- | --- | --- | --- | --- | --- | --- | --- | --- | --- | --- | --- | --- | --- | --- | --- |
| inactive | 1.5 | 56 | inactive | inactive | 4 | inactive | inactive | – | CCCOc1c(OC)cc([C@@H]2CC[C@@H](c3cc(OC)c(OC)c(OC)c3)O2)cc1S(=O)(=O)CCO | inactive | 0.19 | 0.1 | 2.3 | 0.1 | inactive | inactive | inactive |
| – | – | – | – | – | – | – | – | 14 | COc1cc([C@H]2CC[C@H](c3cc(OC)c(OC)c(OC)c3)O2)cc(OC)c1OC | – | – | – | – | – | – | – | – |
